According to PubChem BioAssay (NCI):
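Briefly, cells in 96-well plates were exposed to five compound concentrations for 48 h, and endpoints were estimated by linear interpolation. At the GI50, growth is halved. TGI is the concentration that stops growth completely.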

Tests used:
Assay in all cases: NCI-60 cell line screen, 48 h
[1] = test system: SNB-75 CNS
[2] = test system: MDA-MB-435
[3] = test system: HCC-2998 colon
[4] = test system: A498 renal
[5] = test system: HOP-92 NSCLC
[6] = test system: SK-MEL-2 melanoma
[7] = test system: SR leukemia
[8] = test system: NCI-H522 lung
[9] = test system: CCRF-CEM leukemia
[10] = test system: EKVX NSCLC
[11] = test system: HT29 colon
[12] = test system: TK-10 renal
[13] = test system: UO-31 renal
[14] = test system: HL-60(TB) leukemia
[15] = test system: SF-268 CNS
[16] = test system: DU-145 prostate
[17] = test system: RPMI-8226 leukemia
[18] = test system: MOLT-4 leukemia
[19] = test system: NCI/ADR-RES ovarian
[20] = test system: HS 578T breast
[21] = test system: OVCAR-3 ovarian
[22] = test system: K-562 leukemia
[23] = test system: CAKI-1 renal
[24] = test system: SF-295 CNS
[25] = test system: OVCAR-4 ovarian
[26] = test system: SNB-19 CNS
[27] = test system: SK-OV-3 ovarian
[28] = test system: NCI-H460 lung
[29] = test system: ACHN renal
[30] = test system: SW-620 colon

COC12C=CC(CC1)C(C)(C)C2O (stereo unspecified)
TGI [1]: > 100000 nM

O=C(/C=C\c1ccc(OCCCCCC[P+](c2ccccc2)(c2ccccc2)c2ccccc2)cc1)c1ccc2c(c1)OCCO2
GI50 [2]: 985 nM
TGI [2]: 2210 nM
GI50 [3]: 1010 nM
TGI [3]: 2200 nM
GI50 [4]: 376 nM
TGI [4]: 1950 nM
GI50 [5]: 487 nM
TGI [5]: 2790 nM
GI50 [6]: 1410 nM
TGI [6]: 3900 nM
GI50 [7]: 656 nM
TGI [7]: 9070 nM
GI50 [8]: 885 nM
TGI [8]: 4420 nM
GI50 [1]: 623 nM
TGI [1]: 2720 nM
GI50 [9]: 1220 nM
TGI [9]: 6150 nM
GI50 [10]: 1500 nM
TGI [10]: 6720 nM
GI50 [11]: 912 nM
TGI [11]: 3240 nM
GI50 [12]: 1580 nM
TGI [12]: 3810 nM
GI50 [13]: 1520 nM
TGI [13]: 3200 nM
GI50 [14]: 326 nM
TGI [14]: 1300 nM
GI50 [15]: 585 nM
TGI [15]: 3190 nM
GI50 [16]: 1210 nM
TGI [16]: 2600 nM
GI50 [17]: 296 nM
TGI [17]: 1300 nM
GI50 [18]: 2320 nM
TGI [18]: 8570 nM
GI50 [19]: 4310 nM
TGI [19]: > 100000 nM
GI50 [20]: 827 nM
TGI [20]: 5020 nM
GI50 [21]: 423 nM
TGI [21]: 1610 nM
GI50 [22]: 494 nM
TGI [22]: > 100000 nM
GI50 [23]: 1840 nM
TGI [23]: 3880 nM
GI50 [24]: 1780 nM
TGI [24]: 3460 nM
GI50 [25]: 415 nM
TGI [25]: 3420 nM
GI50 [26]: 462 nM
TGI [26]: 1740 nM
GI50 [27]: 1580 nM
TGI [27]: 3880 nM
GI50 [28]: 1010 nM
TGI [28]: 2500 nM
GI50 [29]: 1790 nM
TGI [29]: 3290 nM
GI50 [30]: 1110 nM
TGI [30]: 2550 nM
